Data on one compound can be found in article PMC12633397 (bioRxiv, 2025).

SMILES strings stand for the structures.

This experiment deals with T1, esVHPO (Enhygromyxa salina, UniProt A0A0C2CTX7).
T1 sequence (A0A0C2CTX7 1-528): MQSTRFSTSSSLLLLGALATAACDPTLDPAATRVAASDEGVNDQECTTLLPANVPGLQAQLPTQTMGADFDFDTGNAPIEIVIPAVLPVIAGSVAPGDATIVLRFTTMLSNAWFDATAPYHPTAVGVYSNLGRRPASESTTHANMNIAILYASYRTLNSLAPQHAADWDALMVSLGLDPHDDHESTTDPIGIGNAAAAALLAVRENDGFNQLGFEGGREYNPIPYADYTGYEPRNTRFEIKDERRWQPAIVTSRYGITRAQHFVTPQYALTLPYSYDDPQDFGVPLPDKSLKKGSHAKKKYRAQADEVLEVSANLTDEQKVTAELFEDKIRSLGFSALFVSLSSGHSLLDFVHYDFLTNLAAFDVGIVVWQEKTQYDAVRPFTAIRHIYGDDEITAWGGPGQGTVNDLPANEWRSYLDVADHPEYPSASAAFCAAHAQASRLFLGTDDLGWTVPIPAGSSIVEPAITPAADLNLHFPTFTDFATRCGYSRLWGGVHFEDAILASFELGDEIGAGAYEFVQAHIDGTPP
Briefly: UPLC-MS of Br-MHQ formation, steady-state kinetics. Type of experiment: biochemical. The following applies: 1 mM H2O2, 20 mM KBr, 100 μM Na3VO4, 20 mM HEPES-KOH, 10% glycerol, 28 °C; Hill fit, positive cooperativity; labelled compound (deuterated).

Take `Cc1cc(=O)c2ccccc2[nH]1` [C3-deuterated MHQ]: the K0.5 entry is listed as “The steady state kinetics for C3-Deuterated-MHQ (D-MHQ) was performed precisely as for undeuterated MHQ”.
